The compounds below were run against T1, interaction between biotinylated human S100A9 and human RAGE-Fc (Homo sapiens, UniProt P06702) (assay: AlphaScreen inhibition assay, Biot-hS100A9:hRAGE-Fc (S100A9-RAGE inhibition assay)). Details: biot-hS100A9 and rhRAGE-Fc, Ca2+ and Zn2+ in buffer.
T1 construct: made in house; host or cells: E. coli BL21(DE3)/pET1120 (pLR757)
T1 sequence (P06702 1-114): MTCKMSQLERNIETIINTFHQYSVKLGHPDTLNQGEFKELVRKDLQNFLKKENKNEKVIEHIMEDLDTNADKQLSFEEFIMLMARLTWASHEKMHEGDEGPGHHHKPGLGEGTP
Format: binding
How it was run: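 Biotinylated human S100A9, in HBS-P with CaCl2 and ZnCl2, preincubated 1 h at room temperature in the dark with compound (final DMSO ≤1.25%), then combined with rhRAGE-Fc on protein A Acceptor beads plus streptavidin Donor beads (20 μg/mL each). Protein levels batch-dependent; percent inhibition from AlphaScreen signal vs DMSO-only control.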

| Structure (SMILES) | IC50 |
| --- | --- |
| O=C(CCN1CCOCC1)NC1(C(F)(F)F)C(=O)Nc2nc3cc(Cl)c(Cl)cc3n21 (stereo not shown) [Example 61, N-[10,11-dichloro-4-oxo-3-(trifluoromethyl)-2,5,7-triazatricyclo[6.4.0.0^2,6]dodeca-1(12),6,8,10-tetraen-3-yl]-3-(morpholin-4-yl)propanamide] | 2.9 µM |
| O=C(CCC1CCCCC1)NC1(C(F)(F)F)C(=O)Nc2nc3cc(Cl)c(Cl)cc3n21 (stereo not shown) [Example 53, 3-cyclohexyl-N-[10,11-dichloro-4-oxo-3-(trifluoromethyl)-2,5,7-triazatricyclo[6.4.0.0^2,6]-dodeca-1(12),6,8,10-tetraen-3-yl]propanamide] | 0.7 µM |
| O=C(CCC1CCCC1)NC1(C(F)(F)F)C(=O)Nc2nc3cc(Cl)c(Cl)cc3n21 (single isomer, unassigned) [Example 219a, 3-cyclopentyl-N-[10,11-dichloro-4-oxo-3-(trifluoromethyl)-2,5,7-triazatricyclo[6.4.0.0^2,6]dodeca-1(12),6,8,10-tetraen-3-yl]propanamide] | 0.94 µM |
| O=C(CCC1CCCC1)NC1(C(F)(F)F)C(=O)Nc2nc3c(Cl)cccc3n21 (stereo not shown) [Example 85, N-[9-chloro-4-oxo-3-(trifluoromethyl)-2,5,7-triazatricyclo[6.4.0.0^2,6]dodeca-1(12),6,8,10-tetraen-3-yl]-3-cyclopentylpropanamide] | 2.6 µM |
| O=C(CCC1CCCC1)NC1(C(F)(F)F)C(=O)Nc2nc3cc4c(cc3n21)CCC4 (stereo not shown) [Example 78, 3-cyclopentyl-N-[12-oxo-11-(trifluoromethyl)-10,13,15-triazatetracyclo[7.6.0.0^3,7.0^10,14]-pentadeca-1(9),2,7,14-tetraen-11-yl]propanamide] | 1.2 µM |
| O=C(CCC1CCCC1)NC1(C(F)(F)F)C(=O)Nc2nc3c(-c4ccc(Cl)c(Cl)c4)cccc3n21 (stereo not shown) [Example 203, 3-cyclopentyl-N-[9-(3,4-dichlorophenyl)-4-oxo-3-(trifluoromethyl)-2,5,7-triazatricyclo[6.4.0.0^2,6]dodeca-1(12),6,8,10-tetraen-3-yl]propanamide] | 1.34 µM |
| O=C(CCC1CCCC1)NC1(C(F)(F)F)C(=O)Nc2nc3c(-c4ccccc4O)cccc3n21 (stereo not shown) [Example 198, 3-cyclopentyl-N-[9-(2-hydroxyphenyl)-4-oxo-3-(trifluoromethyl)-2,5,7-triazatricyclo[6.4.0.0^2,6]dodeca-1(12),6,8,10-tetraen-3-yl]propanamide] | 1.97 µM |
| Cc1cc2nc3n(c2cc1C)C(NC(=O)CCc1ccccc1Cl)(C(F)(F)F)C(=O)N3 (stereo not shown) [Example 16, 3-(2-chlorophenyl)-N-[10,11-dimethyl-4-oxo-3-(trifluoromethyl)-2,5,7-triazatricyclo-[6.4.0.0^2,6]dodeca-1(8),6,9,11-tetraen-3-yl]propanamide] | 1.3 µM |
| COCC(=O)N1CCC(C(=O)NC2(C(F)(F)F)C(=O)Nc3nc4cc(Cl)c(Cl)cc4n32)CC1 (stereo not shown) [Example 44, N-[10,11-dichloro-4-oxo-3-(trifluoromethyl)-2,5,7-triazatricyclo[6.4.0.0^2,6]dodeca-1(12),6,8,10-tetraen-3-yl]-1-(2-methoxyacetyl)piperidine-4-carboxamide] | 4.7 µM |
| O=C(CCC1CCCC1)NC1(C(F)(F)F)C(=O)Nc2nc3cc(Cl)c(Cl)cc3n21 (single isomer, unassigned) [Example 219b, 3-cyclopentyl-N-[10,11-dichloro-4-oxo-3-(trifluoromethyl)-2,5,7-triazatricyclo[6.4.0.0^2,6]dodeca-1(12),6,8,10-tetraen-3-yl]propanamide] | 0.23 µM |
| O=C(CCC1CCCC1)NC1(C(F)(F)F)C(=O)Nc2nc3cc(Cl)c(Cl)cc3n21 (stereo not shown) [Example 39, 3-cyclopentyl-N-[10,11-dichloro-4-oxo-3-(trifluoromethyl)-2,5,7-triazatricyclo[6.4.0.0^2,6]-dodeca-1(12),6,8,10-tetraen-3-yl]propanamide] | 0.5 µM |
| Cc1cc2nc3n(c2cc1C)C(NC(=O)CCCC1CCCC1)(C(F)(F)F)C(=O)N3 (stereo not shown) [Example 19, 4-cyclopentyl-N-[10,11-dimethyl-4-oxo-3-(trifluoromethyl)-2,5,7-triazatricyclo-[6.4.0.0^2,6]dodeca-1(8),6,9,11-tetraen-3-yl]butanamide] | 0.4 µM |
| O=C(CCc1ccccc1)NC1(C(F)(F)F)C(=O)Nc2nc3cc(Cl)c(Cl)cc3n21 (stereo not shown) [Example 37, N-[10,11-dichloro-4-oxo-3-(trifluoromethyl)-2,5,7-triazatricyclo[6.4.0.0^2,6]dodeca-1(8),6,9,11-tetraen-3-yl]-3-phenylpropanamide] | 0.8 µM |
| CCCC(=O)NC1(C(F)(F)F)C(=O)Nc2nc3c(-c4ccc(OC)cc4)cccc3n21 (stereo not shown) [Example 234, N-[9-(4-methoxyphenyl)-4-oxo-3-(trifluoromethyl)-2,5,7-triazatricyclo[6.4.0.0^2,6]dodeca-1(12),6,8,10-tetraen-3-yl]butanamide] | 0.92 µM |
| O=C(NC1(C(F)(F)F)C(=O)Nc2nc3cc(Cl)c(Cl)cc3n21)C1(F)CNC1 (stereo not shown) [Example 103, N-[10,11-dichloro-4-oxo-3-(trifluoromethyl)-2,5,7-triazatricyclo[6.4.0.0^2,6]dodeca-1(8),6,9,11-tetraen-3-yl]-3-fluoroazetidine-3-carboxamide] | 3.97 µM |
| COCCNc1cccc(C(=O)NC2(C(F)(F)F)C(=O)Nc3nc4cc(C)c(C)cc4n32)n1 (single isomer, unassigned) [Example 220b, N-[10,11-dimethyl-4-oxo-3-(trifluoromethyl)-2,5,7-triazatricyclo[6.4.0.0^2,6]dodeca-1(12),6,8,10-tetraen-3-yl]-6-[(2-methoxyethyl)amino]pyridine-2-carboxamide] | 4 µM |
| Cc1ccc2c(nc3n2C(NC(=O)CCC2CCCC2)(C(F)(F)F)C(=O)N3)c1C (stereo not shown) [Example 80, 3-cyclopentyl-N-[9,10-dimethyl-4-oxo-3-(trifluoromethyl)-2,5,7-triazatricyclo[6.4.0.0^2,6]-dodeca-1(12),6,8,10-tetraen-3-yl]propanamide] | 7.4 µM |
| CC(C)CNc1nc(C(=O)NC2(C(F)(F)F)C(=O)Nc3nc4cc(Cl)c(Cl)cc4n32)cs1 (stereo not shown) [Example 237, N-[10,11-dichloro-4-oxo-3-(trifluoromethyl)-2,5,7-triazatricyclo[6.4.0.0^2,6]dodeca-1(12),6,8,10-tetraen-3-yl]-2-[(2-methylpropyl)amino]-1,3-thiazole-4-carboxamide] | 1.81 µM |
| O=C(CCC1CCCC1)NC1(C(F)(F)F)C(=O)Nc2nc3c(F)c(Br)ccc3n21 (stereo not shown) [Example 177, N-[10-bromo-9-fluoro-4-oxo-3-(trifluoromethyl)-2,5,7-triazatricyclo[6.4.0.0^2,6]dodeca-1(12),6,8,10-tetraen-3-yl]-3-cyclopentylpropanamide] | 1.63 µM |
| O=C(CCC1(O)CCCC1)NC1(C(F)(F)F)C(=O)Nc2nc3cc(Cl)c(Cl)cc3n21 (stereo not shown) [Example 88, N-[10,11-dichloro-4-oxo-3-(trifluoromethyl)-2,5,7-triazatricyclo[6.4.0.0^2,6]dodeca-1(8),6,9,11-tetraen-3-yl]-3-(1-hydroxycyclopentyl)propanamide] | 1.61 µM |
| Cc1cc2nc3n(c2cc1C)C(NC(=O)[C@@H](C)CC1CCCC1)(C(F)(F)F)C(=O)N3 (mixture of isomers) [Example 145, (2S)-3-cyclopentyl-N-[10,11-dimethyl-4-oxo-3-(trifluoromethyl)-2,5,7-triazatricyclo[6.4.0.0^2,6]dodeca-1(8),6,9,11-tetraen-3-yl]-2-methylpropanamide] | 3.12 µM |
| O=C(CCC1CCCC1)NC1(C(F)(F)F)C(=O)Nc2nc3c(Cl)cc(Cl)cc3n21 (stereo not shown) [Example 84, 3-cyclopentyl-N-[9,11-dichloro-4-oxo-3-(trifluoromethyl)-2,5,7-triazatricyclo[6.4.0.0^2,6]-dodeca-1(12),6,8,10-tetraen-3-yl]propanamide] | 1.4 µM |
| Cc1cc2nc3n(c2cc1C)C(NC(=O)[C@@H]1CCCN1S(C)(=O)=O)(C(F)(F)F)C(=O)N3 (single isomer, unassigned) [Example 89] | 5.9 µM |
| O=C(CCC1CCCC1)NC1(C(F)(F)F)C(=O)Nc2nc3c(C(=O)O)cc(Cl)cc3n21 (stereo not shown) [Example 233, 11-chloro-3-(3-cyclopentylpropanamido)-4-oxo-3-(trifluoromethyl)-2,5,7-triazatricyclo[6.4.0.0^2,6]dodeca-1(12),6,8,10-tetraene-9-carboxylic acid] | 0.49 µM |
| COc1cc2nc3n(c2cc1OC)C(NC(=O)CCC1CCCC1)(C(F)(F)F)C(=O)N3 (stereo not shown) [Example 76, 3-cyclopentyl-N-[10,11-dimethoxy-4-oxo-3-(trifluoromethyl)-2,5,7-triazatricyclo-[6.4.0.0^2,6]dodeca-1(12),6,8,10-tetraen-3-yl]propanamide] | 11.4 µM |
| Cc1cc2nc3n(c2cc1C)C(NC(=O)CCc1c(Cl)cccc1Cl)(C(F)(F)F)C(=O)N3 (stereo not shown) [Example 29, 3-(2,6-dichlorophenyl)-N-[10,11-dimethyl-4-oxo-3-(trifluoromethyl)-2,5,7-triaza-tricyclo[6.4.0.0^2,6]dodeca-1(8),6,9,11-tetraen-3-yl]propanamide] | 5.4 µM |
| Cc1cc2nc3n(c2cc1C)C(NC(=O)[C@@H](O)c1ccccc1)(C(F)(F)F)C(=O)N3 (single isomer, unassigned) [Example 146a] | 5.39 µM |
| O=C(CCC1CCCCN1)NC1(C(F)(F)F)C(=O)Nc2nc3cc(Cl)c(Cl)cc3n21 (stereo not shown) [Example 69, N-[10,11-dichloro-4-oxo-3-(trifluoromethyl)-2,5,7-triazatricyclo[6.4.0.0^2,6]dodeca-1(12),6,8,10-tetraen-3-yl]-3-(piperidin-2-yl)propanamide] | 4.9 µM |

Source: patent publication US9771372B2, “Compounds useful as S100-inhibitors” (Active Biotech AB, priority 2014, dated 2017)
